Assay results: patent US20250268878A1, “FERROPORTIN-INHIBITORS FOR THE USE IN THE TREATMENT OF MYELODYSPLASTIC SYNDROMES (MDS)” (Vifor (International) AG, priority 2021, published 2025)
“Also recorded” adds a separate entry of the source.

Key:
transfused guinea pigs = conditions: cited from earlier work
[1] = test system: mouse model of β-thalassemia; conditions: cited from earlier work
NUP98-HOXD13 MDS mice [2] = test: NUP98-HOXD13 MDS mouse model, rescuing effect (treatment from 5 months of age); assay type: in vivo; conditions: for Leukemia development / Anemia after 5 months of treatment: additional results; for Leukemia development: WBC; for Anemia after 5 months of treatment: 10 months of age
Method: (§1) • The ferroportin inhibitor compound Fpn127 was tested in NUP98-HOXD13 MDS mice. Fpn127was administered in drinking water containing 1% glucose at the concentration of 0.5 mg/ml.
• To study the rescuing effect of the ferroportin inhibitors according to the invention on the established iron overload and related toxicities in MDS, overall 8 5-month-old MDS mice were treated with the Example Compound Fpn127 and compared to 8 age-and sex-matched MDS untreated mice and wild-type control (1 experiment). Mice were treated from 5 months of age onwards. During the treatment period 3 untreated and 3 treated MDS mice were lost. […] Other 2 mice died without the opportunity to monitor parameters. No molecular analysis of 5 month-old treated mice was obtained as this cohort was kept for further observing and monitoring. To better follow individual blood parameter modulation two cohorts of mice whose treatment has been started at 3 and 5 months of age respectively, are analyzed longitudinally once a month along the treatment.
• To study the rescuing effect of the compound on the established iron overload and related toxicities in MDS, 5-month-old MDS mice were treated and compared to age-and sex-matched untreated MDS mice and wild-type controls. Mice were treated from 5 months of age onwards. […] The anemia of MDS mice tends to worsen from 5 months of age on.

NUP98-HOXD13 MDS mice [3] = test: as above; assay type: in vivo; conditions: over a total of 10
NUP98-HOXD13 MDS mice [4] = test: NUP98-HOXD13 MDS mouse model, preventive effect (treatment from 3 months of age); assay type: in vivo; conditions: for Immature Lin+ cKit+ cells in bone marrow: 3 months-long treatment; for Erythropoiesis / erythroid maturation in bone marrow and spleen: CD71 and CD44 loss on Ter119+ cells; for ROS formation in Ter119+ erythroid precursors: flow cytometry; for NTBI levels: serum, 0.5 mg/ml in drinking water
Method: as §1
• To study the protective effect of ferroportin inhibitors according to the invention on the progressive development of iron overload and related toxicities, overall 15 3-month-old MDS mice were treated with the Example Compound Fpn127 and compared to age-and sex-matched 15 untreated MDS mice and wild-type control (total of 3 repeated experiments). Mice were treated for 3 months-from 3 to 6 months of age. During the treatment period 2 untreated and 1 treated MDS mice were lost. • MDS mice of 3 months of age already show a certain degree of anemia, which supports to use the ferroportin inhibitors in the treatment starting from 3 months to improve erythropoiesis and anemia (FIG. 1). • About 60-70% of MDS mice show a mild to moderate anemia at 3 months of age. According to Hb levels, 3 month-old MDS mice can be divided into 3 groups presenting very mild, mild and moderate anemia (no/very mild anemia: Hb>13 g/dl; mild anemia: 10 g/dl<Hb<13 g/dl; moderate anemia: 8 g/dl<Hb<10 g/dl) (FIG. 2). Rarely MDS mice show severe anemia at 3 months age (severe anemia: Hb<8 g/dl). This reflects the situation of MDS patients whose 70-80% present anemia at diagnosis with different degree of severity. • In MDS mice treated for 3 months with Fpn127 from 3 to 6 months of age, the following parameters were monitored: • Serum iron levels and NTBI; • Liver iron accumulation; • Anemia and blood parameters; • Erythropoiesis—including RBC maturation, erythroid precursor apoptosis and ROS; • Hematopoietic stem cells—including apoptosis, ROS and DNA damage; • Bone marrow macrophages and myeloid-derived suppressor cells (not shown). • The FIGS. 3 to 15 show the results obtained as average of 3 independent experiments.
• Similar as in the MDS mouse model described above, the kinetic effects of VIT-2763, administered into the drinking water (0.5 mg/ml) was investigated in NUP98-HOXD13 model of MDS.
• To study the protective effect of the compound on the progressive development of iron overload and related toxicities, 3-month-old MDS mice were treated and compared to age-and sex-matched untreated MDS mice and wild-type control. Mice were treated with VIT-2763 from 3 months of age on to follow longitudinally blood parameters and survival (FIGS. 16-19), or for 3 months-from 3 to 6 months of age, for cellular and biochemical analyses (FIGS. 20-24).

[5] = treated from 5 months of age, listed as VIT
[6] = treated from 5 months of age, listed as VIT-2763
[7] = 3 to 6 months of age, listed as VIT
[8] = 3 to 6 months of age, listed as VIT-2763
[9] = Annexin V, MDS mice, 3 to 6 months of age
[10] = MDS mice, 3 to 6 months of age, listed as Example Compound No. 127
[11] = MDS mice, 0.5 mg/ml, 3 to 6 months of age
[12] = MDS mice, 0.5 mg/ml, 3 to 6 months of age, listed as Example Compound No. 127
[13] = bone marrow, MDS mice, 3 to 6 months of age
[14] = treated from 3 months of age on, from 5 through 7 months of age

For O=C(NCc1ncccc1F)c1csc(CCNCc2nc3ccccc3[nH]2)n1 [VIT-2653], the “Hb levels following exchange transfusion” value (transfused guinea pigs; guinea pigs, intravenous) is listed as “significantly improved”, the “NTBI levels following exchange transfusion” value (transfused guinea pigs; guinea pigs, intravenous) is listed as “significantly improved” and the “Total iron in kidneys following transfusion” value (transfused guinea pigs; guinea pigs, intravenous) is listed as “can be reduced”. The “Occurrence of changes in plasma creatinine >0.3 mg/dL (early acute kidney injury)” value (transfused guinea pigs; transfused guinea pigs) was “significantly reduced”.

In the case of O=C(NCc1ncccc1F)c1coc(CCNCCc2nc3ccccc3[nH]2)n1 [Fpn127], the Anemia [1] is given as “ameliorated anemia”, the Liver iron loading [1] is given as “prevents liver iron loading” and the Ineffective erythropoiesis ([1]; oral) is given as “improves ineffective erythropoiesis”. For the same molecule, the Leukemia development (NUP98-HOXD13 MDS mice [2]; [5]) was “delayed leukemia development”, the Leukemia development (NUP98-HOXD13 MDS mice [2]; [6]) was “delays leukemia evolution” and the “Anemia after 5 months of treatment” value (NUP98-HOXD13 MDS mice [2]; [5]) was “improved anemia was observed”. The “Anemia after 5 months of treatment” value (NUP98-HOXD13 MDS mice [2]; [6]) was “improves anemia”, the “Median survival improvement compared to untreated mice” value (NUP98-HOXD13 MDS mice [2]; older MDS mice, treated from 5 months of age) was “about 16 days” and the “Hb of treated mice still alive at 15 months of age” value (NUP98-HOXD13 MDS mice [2]; stable blood parameters) was “about 9 g/dl”. For the same molecule, the “Survival (Kaplan-Meier)” value (NUP98-HOXD13 MDS mice [2]; treated from 5 months of age) was “improves MDS mice survival”, the “Anemia after 3 months of treatment” value (NUP98-HOXD13 MDS mice [2]; treated from 5 months of age, 5 to 8 months of age) was “failed to observe improved anemia” and the “Anemia in older MDS mice” value (NUP98-HOXD13 MDS mice [2]; treated from 5 months of age, mice at 9 and 10 months of age, subset of mice) was “improves anemia; also recorded: partial improvement of anemia”. The “Progression to leukemia / leukemia-related death” value (NUP98-HOXD13 MDS mice [2]; treated from 5 months of age, mice that died) was “reduces leukemia-related death; also recorded: no apparent progression to leukemia”, the “Life span reached by MDS mice benefiting from treatment” value (NUP98-HOXD13 MDS mice [2]; untreated all dying within 400 days) was “up to 600 days” and the “Treated MDS mice still alive at 15 months of age” value (NUP98-HOXD13 MDS mice [3]) was “two”. The “Immature Lin+ cKit+ cells in bone marrow” value (NUP98-HOXD13 MDS mice [4]; [7]) was “reduced”, the “Immature Lin+ cKit+ cells in bone marrow” value (NUP98-HOXD13 MDS mice [4]; [8]) was “reduces” and the “Bone marrow CD11b+ myeloid cells (myeloid expansion)” value (NUP98-HOXD13 MDS mice [4]; [7]) was “reduced”. For the same molecule, the “IL-1β production by bone marrow macrophages” value (NUP98-HOXD13 MDS mice [4]; [7]) was “reduced”, the “Macrophage number in bone marrow” value (NUP98-HOXD13 MDS mice [4]; [7]) was “improved macrophage number” and the “Monocytic and granulocytic myeloid-derived suppressor cells (MDSCs) in bone marrow” value (NUP98-HOXD13 MDS mice [4]; [7]) was “reduced”. The “TNFα production by bone marrow macrophages” value (NUP98-HOXD13 MDS mice [4]; [7]) was “reduced”, the “Bone marrow CD11b+ myeloid cells (myeloid expansion)” value (NUP98-HOXD13 MDS mice [4]; [8]) was “reduces myeloid expansion” and the “IL-1β production by bone marrow macrophages” value (NUP98-HOXD13 MDS mice [4]; [8]) was “limits”. For the same molecule, the “Macrophage number in bone marrow” value (NUP98-HOXD13 MDS mice [4]; [8]) was “improves macrophage number”, the “Monocytic and granulocytic myeloid-derived suppressor cells (MDSCs) in bone marrow” value (NUP98-HOXD13 MDS mice [4]; [8]) was “reduces myeloid expansion” and the “TNFα production by bone marrow macrophages” value (NUP98-HOXD13 MDS mice [4]; [8]) was “limits”. The “Apoptosis in Ter119+ erythroid precursors” value (NUP98-HOXD13 MDS mice [4]; [9]) was “decreasing; also recorded: reduced”, the “Cell survival / apoptosis of LSK cells” value (NUP98-HOXD13 MDS mice [4]; [9]) was “lower apoptosis” and the “Apoptosis in Ter119+ erythroid precursors” value (NUP98-HOXD13 MDS mice [4]; Annexin V, MDS mice, 3 to 6 months of age, listed as Example Compound No. 127) was “prevent their apoptosis”. For the same molecule, the “Erythropoiesis / erythroid maturation in bone marrow and spleen” value (NUP98-HOXD13 MDS mice [4]; MDS mice, 3 to 6 months of age) was “improves bone marrow erythroid maturation; also recorded: improves splenic erythroid maturation; also recorded: significantly improved”, the “Erythropoiesis / erythroid maturation in bone marrow and spleen” value (NUP98-HOXD13 MDS mice [4]; [10]) was “improve ineffective erythropoiesis” and the “Improvement of Hb levels” value (NUP98-HOXD13 MDS mice [4]; MDS mice treated from 3 months of age, after 2, 3 and 4 months of treatment) was “about 2 g/dl”. For the same molecule, the “Anemia, longitudinal monitoring” value (NUP98-HOXD13 MDS mice [4]; MDS mice treated with 0.5 mg/ml from 3 months of age) was “improves anemia”, the Serum iron levels (NUP98-HOXD13 MDS mice [4]; MDS mice, 0.5 mg/ml in drinking water for 3 months, 3 to 6 months of age) was “reduces; also recorded: significantly decreased” and the Anemia (NUP98-HOXD13 MDS mice [4]; [11]) was “Improved anemia; also recorded: ameliorates anemia”. For the same molecule, the HCT (NUP98-HOXD13 MDS mice [4]; [11]) was “significantly improved”, the Hb (NUP98-HOXD13 MDS mice [4]; [11]) was “significantly improved” and the Kidney iron content (NUP98-HOXD13 MDS mice [4]; [11]) was “significantly decreased”. For the same molecule, the Liver iron content (NUP98-HOXD13 MDS mice [4]; [11]) was “prevents iron loading; also recorded: significantly decreased”, the MCH (NUP98-HOXD13 MDS mice [4]; [11]) was “remain unchanged” and the MCV (NUP98-HOXD13 MDS mice [4]; [11]) was “remain unchanged”. For the same molecule, the Platelet count (NUP98-HOXD13 MDS mice [4]; [11]) was “remains unchanged”, the RBC (NUP98-HOXD13 MDS mice [4]; [11]) was “significantly improved” and the Reticulocytes (NUP98-HOXD13 MDS mice [4]; [11]) was “trend to improvement”. For the same molecule, the Spleen iron (NUP98-HOXD13 MDS mice [4]; [11]) was “further elevated”, the “WBC count elevation / progression to leukemia” value (NUP98-HOXD13 MDS mice [4]; [11]) was “trend in reducing progression to leukemia; also recorded: only one mouse show a trend to elevated WBC count” and the Anemia (NUP98-HOXD13 MDS mice [4]; [12]) was “ameliorate anemia”. The Liver iron content (NUP98-HOXD13 MDS mice [4]; [12]) was “prevent”, the “Double strand breaks (γH2AX) in LSK cells” value (NUP98-HOXD13 MDS mice [4]; MDS mice, 3 to 6 months of age) was “reduced double strand breaks” and the “ROS production in LSK cells” value (NUP98-HOXD13 MDS mice [4]; MDS mice, 3 to 6 months of age) was “decreased ROS production”. The “Expression of CD71 on Ter119+ erythroid precursors” value (NUP98-HOXD13 MDS mice [4]; bone marrow and spleen, MDS mice, 3 to 6 months of age) was “significant reduction”, the “Overall status of hematopoietic LSK stem cells” value (NUP98-HOXD13 MDS mice [4]; [13]) was “improves the overall status; also recorded: overall improvement” and the “Pool of LSK cells” value (NUP98-HOXD13 MDS mice [4]; [13]) was “likely preserved”. For the same molecule, the “ROS formation in Ter119+ erythroid precursors” value (NUP98-HOXD13 MDS mice [4]; MDS mice, 3 to 6 months of age) was “decreasing; also recorded: reduced”, the “ROS formation in Ter119+ erythroid precursors” value (NUP98-HOXD13 MDS mice [4]; [10]) was “limit” and the “Iron accumulation in LSK cells” value (NUP98-HOXD13 MDS mice [4]; labile iron, MDS mice, 3 to 6 months of age) was “reduced iron accumulation”. The “WBC increase in peripheral blood / leukemia evolution” value (NUP98-HOXD13 MDS mice [4]; longitudinal, treated from 3 months of age, listed as VIT-2763) was “delays leukemia evolution; also recorded: not observed or delayed”, the NTBI levels (NUP98-HOXD13 MDS mice [4]; MDS mice, 3 to 6 months of age) was “reduces; also recorded: significantly decreased” and the NTBI levels (NUP98-HOXD13 MDS mice [4]; [10]) was “prevent NTBI formation”. For the same molecule, the “Survival (Kaplan-Meier)” value (NUP98-HOXD13 MDS mice [4]; treated from 3 months of age) was “improves MDS mice survival”, the “HCT, longitudinal monitoring” value (NUP98-HOXD13 MDS mice [4]; [14]) was “significantly improved” and the “Hb, longitudinal monitoring” value (NUP98-HOXD13 MDS mice [4]; [14]) was “significantly improved”. The “RBC, longitudinal monitoring” value (NUP98-HOXD13 MDS mice [4]; [14]) was “significantly improved”.
